Consider eight compounds from patent US20200354426A1 (MEDIMMUNE LIMITED, priority 2016, published 2020).

Experiment in all cases: cAMP activity assay in assay medium (assay 1)
What all share (assay type): cell-based

The target in one experiment is T1, Human GIPr (Homo sapiens, UniProt P48546).
T1 construct: expressed in transfected cells
T1 sequence (P48546 22-466): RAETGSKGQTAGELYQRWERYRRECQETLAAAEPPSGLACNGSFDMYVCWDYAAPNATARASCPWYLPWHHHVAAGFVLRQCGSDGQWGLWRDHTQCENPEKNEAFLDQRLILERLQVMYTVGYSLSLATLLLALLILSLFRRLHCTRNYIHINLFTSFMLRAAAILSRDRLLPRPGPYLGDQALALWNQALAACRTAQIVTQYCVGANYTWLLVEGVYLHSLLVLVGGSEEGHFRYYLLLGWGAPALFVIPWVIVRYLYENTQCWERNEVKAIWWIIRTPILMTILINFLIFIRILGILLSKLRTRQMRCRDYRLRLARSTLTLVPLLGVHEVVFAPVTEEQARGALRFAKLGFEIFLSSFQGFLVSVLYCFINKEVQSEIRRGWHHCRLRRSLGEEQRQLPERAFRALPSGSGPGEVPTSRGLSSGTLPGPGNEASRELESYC
The conditions noted are these: assay medium; Table 4; read-out: hGIPR EC50. The text has this: (§1) Biological Activity of Peptides in Cell-Based cAMP Activity Assay (Assay 1):
(§2) All sample dilutions were made in duplicate.

The next experiment has as its target T2, Human GlucR (Homo sapiens, UniProt P47871).
T2 construct: expressed in transfected cells
The conditions noted are these: assay medium; Table 4; read-out: hGlucR EC50.
Text: as §1, §2

A further experiment addresses Human GLP1R (Homo sapiens, UniProt P43220). Set-up: expressed in transfected cells. Particulars: assay medium; Table 4; read-out: hGLP1R EC50.
Text: as §1, §2

Numbered stars: 1 amine (or outer) side, 2 acyl side, 3 side chain; on linkers, the order of the positions; unused ones are H or OH. Side chains are listed from the residue outwards. Peptide text beside a SMILES is read from it. * marks the point of attachment. γGlu = O=C(O)[C@H](CCC(=O)[*:2])N[*:1]; Palmitoyl = CCCCCCCCCCCCCCCC(=O)*

T2 sequence (P47871 26-477): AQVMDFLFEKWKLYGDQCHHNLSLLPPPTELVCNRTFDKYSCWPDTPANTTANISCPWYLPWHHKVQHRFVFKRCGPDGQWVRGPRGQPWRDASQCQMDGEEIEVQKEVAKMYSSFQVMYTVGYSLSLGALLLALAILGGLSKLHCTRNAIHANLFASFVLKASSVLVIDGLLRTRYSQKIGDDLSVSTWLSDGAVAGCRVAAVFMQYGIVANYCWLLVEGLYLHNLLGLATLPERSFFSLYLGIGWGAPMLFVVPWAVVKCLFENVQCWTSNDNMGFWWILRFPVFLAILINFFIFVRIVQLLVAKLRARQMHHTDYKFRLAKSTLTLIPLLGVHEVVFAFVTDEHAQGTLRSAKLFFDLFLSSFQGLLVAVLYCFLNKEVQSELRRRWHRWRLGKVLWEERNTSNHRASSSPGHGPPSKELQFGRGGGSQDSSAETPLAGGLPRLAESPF
Sequence of Human GLP1R (P43220 24-463): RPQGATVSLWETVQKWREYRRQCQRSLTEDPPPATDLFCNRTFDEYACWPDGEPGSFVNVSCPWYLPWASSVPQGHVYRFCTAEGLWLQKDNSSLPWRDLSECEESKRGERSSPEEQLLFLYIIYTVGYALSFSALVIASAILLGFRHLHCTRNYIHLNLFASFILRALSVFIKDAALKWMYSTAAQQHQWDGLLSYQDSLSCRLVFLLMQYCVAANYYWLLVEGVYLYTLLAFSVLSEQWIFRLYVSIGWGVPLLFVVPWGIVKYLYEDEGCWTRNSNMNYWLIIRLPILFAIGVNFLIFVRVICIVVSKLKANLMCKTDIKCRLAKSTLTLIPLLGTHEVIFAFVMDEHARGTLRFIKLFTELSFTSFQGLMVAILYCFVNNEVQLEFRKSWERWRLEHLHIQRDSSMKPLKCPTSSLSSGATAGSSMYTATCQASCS

Regarding `CCCCCCCCCCCCCCCC(=O)NCCCC[C@H](NC(=O)CNC(=O)CNC(=O)CNC(=O)CNC(=O)CNC(=O)CNC(=O)[C@H](CCCNC(=N)N)NC(=O)[C@@H](NC(=O)[C@H](CC(C)C)NC(=O)[C@H](Cc1c[nH]c2ccccc12)NC(=O)[C@H](CCC(N)=O)NC(=O)[C@@H](NC(=O)[C@H](Cc1ccccc1)NC(=O)[C@H](CC(=O)O)NC(=O)[C@H](CCC(N)=O)NC(=O)[C@H](C)NC(=O)[C@H](CCCNC(=N)N)NC(=O)[C@H](CCCNC(=N)N)NC(=O)[C@H](CO)NC(=O)[C@H](CC(=O)O)NC(=O)[C@H](CC(C)C)NC(=O)[C@H](Cc1ccc(O)cc1)NC(=O)[C@H](CCCCN)NC(=O)[C@H](CO)NC(=O)[C@H](Cc1ccc(O)cc1)NC(=O)[C@H](CC(=O)O)NC(=O)[C@H](CO)NC(=O)[C@@H](NC(=O)[C@H](Cc1ccccc1)NC(=O)[C@@H](NC(=O)CNC(=O)[C@H](CCC(N)=O)NC(=O)[C@H](CO)NC(=O)[C@@H](N)Cc1c[nH]cn1)[C@@H](C)O)[C@@H](C)O)C(C)C)C(C)C)C(N)=O` [g326], the EC50 (commonly the concentration that produces a half-maximal response) on Human GIPr turned out to be 12.6 nM; on Human GlucR, 0.00282 nM; at Human GLP1R it was 0.0247 nM.
The corresponding values for `CCCCCCCCCCCCCCCC(=O)N[C@@H](CCC(=O)NCCCC[C@H](NC(=O)CNC(=O)CNC(=O)CNC(=O)CNC(=O)CNC(=O)CNC(=O)[C@H](CCCNC(=N)N)NC(=O)[C@@H](NC(=O)[C@H](CC(C)C)NC(=O)[C@H](Cc1c[nH]c2ccccc12)NC(=O)[C@H](CCC(N)=O)NC(=O)[C@@H](NC(=O)[C@H](Cc1ccccc1)NC(=O)[C@H](CC(=O)O)NC(=O)[C@H](CCC(N)=O)NC(=O)[C@H](C)NC(=O)[C@H](CCCNC(=N)N)NC(=O)[C@H](CCCNC(=N)N)NC(=O)[C@H](CO)NC(=O)[C@H](CC(=O)O)NC(=O)[C@H](CC(C)C)NC(=O)[C@H](Cc1ccc(O)cc1)NC(=O)[C@H](CCCCN)NC(=O)[C@H](CO)NC(=O)[C@H](Cc1ccc(O)cc1)NC(=O)[C@H](CC(=O)O)NC(=O)[C@H](CO)NC(=O)[C@@H](NC(=O)[C@H](Cc1ccccc1)NC(=O)[C@@H](NC(=O)CNC(=O)[C@H](CCC(N)=O)NC(=O)[C@H](CO)NC(=O)[C@@H](N)Cc1c[nH]cn1)[C@@H](C)O)[C@@H](C)O)C(C)C)C(C)C)C(N)=O)C(=O)O` [g327] are 12.8 nM, 0.00232 nM and 0.0193 nM.
The corresponding values for `CCCCCCCCCCCCCCCC(=O)N[C@@H](CCC(=O)NCCCC[C@H](NC(=O)[C@H](CO)NC(=O)[C@H](CC(=O)O)NC(=O)[C@H](CC(C)C)NC(=O)[C@H](Cc1ccc(O)cc1)NC(=O)[C@H](CCCCN)NC(=O)[C@H](CO)NC(=O)[C@H](Cc1ccc(O)cc1)NC(=O)[C@H](CC(=O)O)NC(=O)[C@H](CO)NC(=O)[C@@H](NC(=O)[C@H](Cc1ccccc1)NC(=O)[C@@H](NC(=O)CNC(=O)[C@H](CCC(N)=O)NC(=O)[C@H](CO)NC(=O)[C@@H](N)Cc1c[nH]cn1)[C@@H](C)O)[C@@H](C)O)C(=O)N[C@@H](CCCNC(=N)N)C(=O)N[C@@H](C)C(=O)N[C@@H](CCC(N)=O)C(=O)N[C@@H](CC(=O)O)C(=O)N[C@@H](Cc1ccccc1)C(=O)N[C@H](C(=O)N[C@@H](CCC(N)=O)C(=O)N[C@@H](Cc1c[nH]c2ccccc12)C(=O)N[C@@H](CC(C)C)C(=O)N[C@H](C(=O)N[C@@H](C)C(=O)NCC(=O)NCC(N)=O)C(C)C)C(C)C)C(=O)O` [g335] are 582 nM, 0.0105 nM and 0.0733 nM.
The corresponding values for `CCCCCCCCCCCCCCCC(=O)N[C@@H](CCC(=O)N[C@@H](CCC(=O)NCCCC[C@H](NC(=O)[C@H](CO)NC(=O)[C@H](CC(=O)O)NC(=O)[C@H](CC(C)C)NC(=O)[C@H](Cc1ccc(O)cc1)NC(=O)[C@H](CCCCN)NC(=O)[C@H](CO)NC(=O)[C@H](Cc1ccc(O)cc1)NC(=O)[C@H](CC(=O)O)NC(=O)[C@H](CO)NC(=O)[C@@H](NC(=O)[C@H](Cc1ccccc1)NC(=O)[C@@H](NC(=O)CNC(=O)[C@H](CCC(N)=O)NC(=O)[C@H](CO)NC(=O)[C@@H](N)Cc1c[nH]cn1)[C@@H](C)O)[C@@H](C)O)C(=O)N[C@@H](CCCNC(=N)N)C(=O)N[C@@H](C)C(=O)N[C@@H](CCC(N)=O)C(=O)N[C@@H](CC(=O)O)C(=O)N[C@@H](Cc1ccccc1)C(=O)N[C@H](C(=O)N[C@@H](CCC(N)=O)C(=O)N[C@@H](Cc1c[nH]c2ccccc12)C(=O)N[C@@H](CC(C)C)C(=O)N[C@H](C(=O)N[C@@H](C)C(=O)NCC(=O)NCC(N)=O)C(C)C)C(C)C)C(=O)O)C(=O)O` [g336] are 19.6 nM, 0.00177 nM and 0.0366 nM.
`CCCCCCCCCCCCCCCC(=O)N[C@@H](CCC(=O)NCCCC[C@H](NC(=O)[C@H](CO)NC(=O)[C@H](CC(=O)O)NC(=O)[C@H](CC(C)C)NC(=O)[C@H](Cc1ccc(O)cc1)NC(=O)[C@H](CCCCN)NC(=O)[C@H](CO)NC(=O)[C@H](Cc1ccc(O)cc1)NC(=O)[C@H](CC(=O)O)NC(=O)[C@H](CO)NC(=O)[C@@H](NC(=O)[C@H](Cc1ccccc1)NC(=O)[C@@H](NC(=O)CNC(=O)[C@H](CCC(=O)O)NC(=O)[C@H](CO)NC(=O)[C@@H](N)Cc1c[nH]cn1)[C@@H](C)O)[C@@H](C)O)C(=O)N[C@@H](CCCNC(=N)N)C(=O)N[C@@H](C)C(=O)N[C@@H](CCC(N)=O)C(=O)N[C@@H](CC(=O)O)C(=O)N[C@@H](Cc1ccccc1)C(=O)N[C@H](C(=O)N[C@@H](CCC(N)=O)C(=O)N[C@@H](Cc1c[nH]c2ccccc12)C(=O)N[C@@H](CC(C)C)C(=O)N[C@H](C(=O)N[C@@H](C)C(=O)NCC(=O)NCC(N)=O)C(C)C)C(C)C)C(=O)O` [g381] (H-HSEGTFTSDYSKYLDSK([γGlu-Palmitoyl])RAQDFVQWLVAGG-NH2; N-terminus assumed): the EC50 on Human GIPr came out at 545 nM; at Human GlucR it was 1.93 nM; at Human GLP1R it was 0.0908 nM.
The corresponding values for `CCCCCCCCCCCCCCCC(=O)N[C@@H](CCC(=O)NCCCC[C@H](NC(=O)[C@H](CO)NC(=O)[C@H](CC(=O)O)NC(=O)[C@H](CC(C)C)NC(=O)[C@H](Cc1ccc(O)cc1)NC(=O)[C@H](CCCCN)NC(=O)[C@H](CO)NC(=O)[C@H](Cc1ccc(O)cc1)NC(=O)[C@H](CC(=O)O)NC(=O)[C@H](CO)NC(=O)[C@@H](NC(=O)[C@H](Cc1ccccc1)NC(=O)[C@@H](NC(=O)CNC(=O)[C@H](CCC(N)=O)NC(=O)C(C)(C)NC(=O)[C@@H](N)Cc1c[nH]cn1)[C@@H](C)O)[C@@H](C)O)C(=O)N[C@@H](CCCNC(=N)N)C(=O)N[C@@H](C)C(=O)N[C@@H](CCC(N)=O)C(=O)N[C@@H](CC(=O)O)C(=O)N[C@@H](Cc1ccccc1)C(=O)N[C@H](C(=O)N[C@@H](CCC(N)=O)C(=O)N[C@@H](Cc1c[nH]c2ccccc12)C(=O)N[C@@H](CC(C)C)C(=O)N[C@H](C(=O)N[C@@H](C)C(=O)NCC(=O)NCC(N)=O)C(C)C)C(C)C)C(=O)O` [g384] are 17 nM, 0.0429 nM and 0.0272 nM.
On the same counts, the results for `CCCCCCCCCCCCCCCC(=O)N[C@@H](CCC(=O)NCCCC[C@H](NC(=O)[C@H](CO)NC(=O)[C@H](CC(=O)O)NC(=O)[C@H](CC(C)C)NC(=O)[C@H](Cc1ccc(O)cc1)NC(=O)[C@H](CCCCN)NC(=O)[C@H](CO)NC(=O)[C@H](Cc1ccc(O)cc1)NC(=O)[C@H](CC(=O)O)NC(=O)[C@H](CO)NC(=O)[C@@H](NC(=O)[C@H](Cc1ccccc1)NC(=O)[C@@H](NC(=O)CNC(=O)[C@H](CCC(N)=O)NC(=O)CNC(=O)[C@@H](N)Cc1c[nH]cn1)[C@@H](C)O)[C@@H](C)O)C(=O)N[C@@H](CCCNC(=N)N)C(=O)N[C@@H](C)C(=O)N[C@@H](CCC(N)=O)C(=O)N[C@@H](CC(=O)O)C(=O)N[C@@H](Cc1ccccc1)C(=O)N[C@H](C(=O)N[C@@H](CCC(N)=O)C(=O)N[C@@H](Cc1c[nH]c2ccccc12)C(=O)N[C@@H](CC(C)C)C(=O)N[C@@H](CCC(=O)O)C(=O)N[C@@H](C)C(=O)NCC(=O)NCC(N)=O)C(C)C)C(=O)O` [g512] are 407 nM, 0.0606 nM and 0.098 nM.
The corresponding values for `CCCCCCCCCCCCCCCC(=O)N[C@@H](CCC(=O)NCCCC[C@H](NC(=O)[C@H](CO)NC(=O)[C@H](CC(=O)O)NC(=O)[C@H](CC(C)C)NC(=O)[C@H](Cc1ccc(O)cc1)NC(=O)[C@H](CCCCN)NC(=O)[C@H](CO)NC(=O)[C@H](Cc1ccc(O)cc1)NC(=O)[C@H](CC(=O)O)NC(=O)[C@H](CO)NC(=O)[C@@H](NC(=O)[C@H](Cc1ccccc1)NC(=O)[C@@H](NC(=O)CNC(=O)[C@H](CCC(=O)O)NC(=O)[C@H](CO)NC(=O)[C@@H](N)Cc1c[nH]cn1)[C@@H](C)O)[C@@H](C)O)C(=O)N[C@@H](CCCNC(=N)N)C(=O)N[C@@H](C)C(=O)N[C@@H](CCC(N)=O)C(=O)N[C@@H](CC(=O)O)C(=O)N[C@@H](Cc1ccccc1)C(=O)N[C@H](C(=O)N[C@@H](CCC(N)=O)C(=O)N[C@@H](Cc1c[nH]c2ccccc12)C(=O)N[C@@H](CC(C)C)C(=O)N[C@@H](CCC(=O)O)C(=O)N[C@@H](C)C(=O)NCC(=O)NCC(N)=O)C(C)C)C(=O)O` [g513] (H-HSEGTFTSDYSKYLDSK([γGlu-Palmitoyl])RAQDFVQWLEAGG-NH2; N-terminus assumed) are 298 nM, 0.723 nM and 0.175 nM.
